The source of these data is paper PMC3412620 (PLoS ONE, 2012).

The target of series [1] is T1, human pyridoxal kinase (hPL kinase) (Homo sapiens, UniProt O00764).
T1 construct: gene PDXK; wild-type hPL kinase
T1 sequence (O00764 1-312): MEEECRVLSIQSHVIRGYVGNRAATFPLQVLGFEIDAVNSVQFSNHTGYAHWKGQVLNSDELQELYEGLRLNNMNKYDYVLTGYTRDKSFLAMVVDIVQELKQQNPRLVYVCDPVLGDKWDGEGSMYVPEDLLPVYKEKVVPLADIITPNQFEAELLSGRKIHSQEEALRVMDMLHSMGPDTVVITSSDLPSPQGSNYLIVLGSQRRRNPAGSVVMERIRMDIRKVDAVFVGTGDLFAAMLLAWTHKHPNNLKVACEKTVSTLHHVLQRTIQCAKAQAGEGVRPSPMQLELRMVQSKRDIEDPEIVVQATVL
As to the kind of experiment: crystal structure ([…] Å, ternary with ginkgotoxin). The format is binding.

Series [2] has as its target T1, human pyridoxal kinase (hPL kinase). In words: crystal structure ([…] Å), […] occupancy; density broken between ring and phosphate. It is filed as binding.
For series [3] the target is unchanged. In words: spectrophotometric kinetic assay (PL to PLP, […] nm). It is filed as biochemical.
The target is the same in series [4]. In words: percentage inhibition at […], spectrophotometric assay. The format is biochemical.
Substrate in series [5]: Cc1ncc(CO)c(C=O)c1O
As to the kind of experiment: spectrophotometric steady-state kinetics with purified enzyme (Km). As to conditions: MgATP PL substrate site. It is filed as biochemical, Homo sapiens.

For the molecule `Nc1ncnc2c1ncn2[C@@H]1O[C@H](COP(=O)(O)OP(=O)(O)OP(=O)(O)O)[C@@H](O)[C@H]1O` [ATP], the “crystal structure (2.15 Å, ternary with ginkgotoxin)” value in series [1] is “We observed bound MgATP and ginkgotoxin (Fig. 4A–C) at both subunit active sites”.

In the case of `COCc1c(COP(=O)(O)O)cnc(C)c1O` [GIP, ginkgotoxin phosphate], in series [2], the “crystal structure (2.15 Å), 40% occupancy; density broken between ring and phosp” value is “We also observed what appears to be the phosphorylated product of ginkgotoxin bound at the PL sites”.

As for `Nc1nnc(-c2cccc(Cl)c2Cl)c(N)n1` [lamotrigine], the affinity in series [3] corresponds to a Ki of 56 µM.

`Cn1c(=O)c2c(ncn2C)n(C)c1=O` [caffeine]: in series [4], the inhibition at 100 µM was determined as 21%.

In series [3], `CCCn1c(=O)[nH]c(=O)c2[nH]cnc21` [enprofylline] came in with a Ki of 228 µM.

Consider `Cn1cnc2c1c(=O)[nH]c(=O)n2C` [theobromine], for which, in series [4], at 100 µM the inhibition was 22%.

B1: human pyridoxal kinase (hPL kinase) (Homo sapiens) (protein)
chain: T1 sequence (O00764 1-312)
notes: wild-type hPL kinase
As to B1, the Km in series [5] is given as 58 µM.
